In publication PMC9298070, “Lack of a Clinically Meaningful Drug Interaction Between the HIV‐1 Antiretroviral Agents Islatravir, Dolutegravir, and Tenofovir Disoproxil Fumarate” (Clinical Pharmacology in Drug Development, 2021):
Counter-ions that a name gives are not always drawn. Like-named read-outs stand apart in the source and are kept apart here.

How the values were obtained:
[1] = Safety and tolerability in the phase 1 trial (adverse event reports, laboratory tests, ECG, vital signs); type: in vivo, human; conditions: after administration of dolutegravir and TDF; of 12 participants
Method: (§1) This was a phase 1, open‐label, fixed‐sequence, 2‐period trial in adults without HIV (protocol MK‐8591‐005). In period 1, participants received a single oral dose of 20 mg islatravir. In period 2, participants received multiple oral doses of 50 mg dolutegravir and 300 mg TDF once daily for 11 consecutive days (days 1‐11), with a single oral dose of 20 mg islatravir coadministered on day 8. There was a washout period of ≥7 days between islatravir dosing in period 1 and the first dose of dolutegravir and TDF in period 2 (Figure 1).
Safety and tolerability were monitored by repeated clinical and laboratory evaluations for the duration of the trial. Safety evaluations included adverse event (AE) reports, laboratory tests, 12‐lead electrocardiograms, and vital signs.
Incidence of adverse experiences was descriptively summarized.

[2] = Plasma pharmacokinetics in phase 1, open-label, fixed-sequence, 2-period drug interaction trial (MK-8591-005); type: in vivo, human; conditions: for C24, GMR (90%CI): Islatravir + Dolutegravir + TDF / Dolutegravir + TDF; for half-life / concentration at 24 h / AUC / Cmax / Tmax: human, oral; for half-life / concentration at 24 h / Cmax, GM (95%CI) / tmax, median (min‐max) / Apparent terminal t1/2, geometric mean (geometric CV %) / AUC / Cmax / Tmax: plasma, N = 12; for Tmax: read-out: tmax, median (min‐max)
Method: as §1
Blood samples for islatravir plasma analysis were collected before dosing and at selected time points over 96 hours following administration of islatravir on day 1 of period 1 and day 8 of period 2. In period 2, samples taken at 24, 48, and 72 hours for islatravir plasma analysis were collected before dose administration of dolutegravir and TDF. Blood samples for plasma analysis of dolutegravir and tenofovir were collected before dosing on days 1, 7, and 8 of period 2 and at selected time points over 24 hours after dosing on days 7 and 8 of period 2. The 24 hour samples for dolutegravir and tenofovir analysis for days 7 and 8 were collected before dosing of dolutegravir and TDF.
Plasma concentrations of islatravir, dolutegravir, and tenofovir were determined by inVentiv Health Clinique (Québec City, Québec, Canada) using validated high‐performance liquid chromatography coupled to tandem mass spectrometry methods.
Islatravir (m/z 294.000/154.000) was extracted using an automated protein precipitation method using [^13C,^15N3]‐ISL as internal standard (m/z 297.800/158.000). The extracted samples were assessed on a system equipped with a X Select HSS T3 C18, 50×2.1 mm, 2.5 μm column with water/acetonitrile with formic acid mobile phase. […] The lower limit of quantitation for islatravir was 0.10 ng/mL, with an analytical range of 0.10 to 100.00 ng/mL.
Dolutegravir (m/z 420.200/277.200) was extracted using an automated protein precipitation method using [C^13‐d5]‐dolutegravir as the internal standard (m/z 426.300/277.300). The extracted samples were assessed on a system equipped with an ACE 3 C18, 30 × 4.6 mm, 3 μm column (Avantor, Radnor, Pennsylvania) with water/methanol with ammonium formate and formic acid mobile phase. […] The lower limit of quantitation for dolutegravir was 10.00 ng/mL, with an analytical range of 10.00 to 10 000.00 ng/mL.
Tenofovir (m/z 288.200/176.200) was extracted using an automated solid phase extraction using tenofovir‐d6 as internal standard (m/z 294.100/182.300). The extracted samples were assessed on a system equipped with an Atlantis dC18, 75 × 4.6 mm, 3 μm column (Waters Corp., Milford, Massachusetts) with water/acetonitrile with ammonium formate and formic acid mobile phase. […] The lower limit of quantitation for tenofovir was 0.50 ng/mL, with an analytical range of 0.50 to 500.00 ng/mL.
Plasma islatravir, dolutegravir, and tenofovir pharmacokinetics were summarized descriptively. Pharmacokinetic parameter values were calculated using the software Phoenix WinNonlin version 6.3 (Certara, Princeton, New Jersey). Cmax, C24, and tmax values were obtained directly from the observed plasma concentration–time data.

[3] = set-up: method as in PMID 19884365; conditions: once-daily multiple dosing; cited from earlier work
[4] = in vivo; cited from earlier work
[5] = steady state, 50 mg dolutegravir + 300 mg TDF once daily days 1-7, period 2, without islatravir, read-out: Apparent terminal t1/2, geometric mean (geometric CV %) (converted)
[6] = steady state, 50 mg dolutegravir + 300 mg TDF once daily days 1-7, period 2, without islatravir, read-out: Apparent terminal t1/2, AM (SD) (converted)
[7] = steady state, 50 mg dolutegravir + 300 mg TDF once daily days 1-7, period 2, without islatravir, read-out: C24, AM (SD)
[8] = steady state, 50 mg dolutegravir + 300 mg TDF once daily days 1-7, period 2, without islatravir, read-out: C24, GM (95%CI)
[9] = 50 mg dolutegravir + 300 mg TDF once daily with single 20 mg islatravir on day 8, period 2, read-out: C24, AM (SD)
[10] = 50 mg dolutegravir + 300 mg TDF once daily with single 20 mg islatravir on day 8, period 2, read-out: C24, GM (95%CI)
[11] = steady state, 50 mg dolutegravir + 300 mg TDF once daily days 1-7, period 2, without islatravir
[12] = 50 mg dolutegravir + 300 mg TDF once daily with single 20 mg islatravir on day 8, period 2

Compound	participants reporting AEs considered drug-related [1] [participants]	C24, GMR (90%CI) [2]	half-life [2, 5] [h]	half-life [2, 6] [h]	concentration at 24 h [2, 7] [ng/mL]	concentration at 24 h [2, 8] [ng/mL]	concentration at 24 h [2, 9] [ng/mL]	concentration at 24 h [2, 10] [ng/mL]	Apparent terminal t1/2, geometric mean (geometric CV %) [2, 12]	also measured
C[C@@H]1CCO[C@H]2Cn3cc(C(=O)NCc4ccc(F)cc4F)c(=O)c(O)c3C(=O)N12 [Dolutegravir]	3	1.10 (1.03‐1.17)	15.2	15.3	1220	1120	1310	1240	15.5 (16.2) h	half-life ([2]; 50 mg dolutegravir + 300 mg TDF once daily with single 20 mg islatravir on day 8, period 2, read-out: Apparent terminal t1/2, AM (SD) (converted)): 15.7 h; Cmax, GM (95%CI) [2, 11]: 3500 (2770‐4430) ng/mL; tmax, median (min‐max) [2, 11]: 2.50 (0.50‐4.13) h; Cmax, GM (95%CI) [2, 12]: 3570 (2950‐4330) ng/mL; tmax, median (min‐max) [2, 12]: 3.00 (1.00‐6.03) h; time to steady‐state concentrations [3]: ≤ 5 days
CC(C)OC(=O)OCOP(=O)(CO[C@H](C)Cn1cnc2c(N)ncnc21)OCOC(=O)OC(C)C [TDF, tenofovir disoproxil fumarate]	3	–	–	–	–	–	–	–	–	–
C[C@H](Cn1cnc2c(N)ncnc21)OCP(=O)(O)O [Tenofovir]	–	1.05 (0.97‐1.14)	13.7	13.8	43.6	42.6	45.3	44.8	13.2 (11.0) h	AUC ([2]; steady state, 50 mg dolutegravir + 300 mg TDF once daily days 1-7, period 2, without islatravir, read-out: AUC0‐24, AM (SD)): 2250 ng·h/mL; AUC ([2]; steady state, 50 mg dolutegravir + 300 mg TDF once daily days 1-7, period 2, without islatravir, read-out: AUC0‐24, GM (95%CI)): 2220 ng·h/mL; Cmax ([2]; steady state, 50 mg dolutegravir + 300 mg TDF once daily days 1-7, period 2, without islatravir, read-out: Cmax, AM (SD)): 346 ng/mL; Cmax ([2]; steady state, 50 mg dolutegravir + 300 mg TDF once daily days 1-7, period 2, without islatravir, read-out: Cmax, GM (95%CI)): 339 ng/mL; Tmax [2, 11]: 1 h; AUC ([2]; 50 mg dolutegravir + 300 mg TDF once daily with single 20 mg islatravir on day 8, period 2, read-out: AUC0‐24, AM (SD)): 2350 ng·h/mL; AUC ([2]; 50 mg dolutegravir + 300 mg TDF once daily with single 20 mg islatravir on day 8, period 2, read-out: AUC0‐24, GM (95%CI)): 2330 ng·h/mL; Cmax ([2]; 50 mg dolutegravir + 300 mg TDF once daily with single 20 mg islatravir on day 8, period 2, read-out: Cmax, AM (SD)): 343 ng/mL; Cmax ([2]; 50 mg dolutegravir + 300 mg TDF once daily with single 20 mg islatravir on day 8, period 2, read-out: Cmax, GM (95%CI)): 333 ng/mL; Tmax [2, 12]: 1.01 h; time to steady‐state concentrations [4]: ≤ 7 days
